Experimental data published in US9206124B2, “Treatment of drug-resistant cancer with 2-aryl-2-(3-indolyl) acetohydroxamates” (New Mexico Technical Research Foundation, priority 2013, dated 2015).

Legend:
[1] = tested on: MCF-7 breast adenocarcinoma cells; experiment: MTT antiproliferative assay, MCF-7; assay type: cell-based; conditions: Homo sapiens, MCF7, Table 1, 48 h treatment, ± SD, read-out: cell viability GI50, MCF7
Text: This finding led to an exploration of the SAR analyses by synthesizing the first generation compounds 3 containing diverse substituents at different positions in the 2-aryl-2-(3-indolyl)acetohydroxamate skeleton and testing this series for in vitro growth inhibition using the MTT colorimetric assay against two cell lines, human HeLa cervical and MCF-7 breast adenocarcinomas (Table 1). It emerged from these experiments that the substitution on the benzene ring of the indole moiety (R^2≠H) was not tolerated (e.g., 3abfa and 3acfa), whereas the nitrogen could be derivatized (R^1≠H) with only a small activity drop (e.g., 3bafa vs 3aafa).
(§1) Human cancer cell lines were obtained from the American Type Culture Collection (ATCC, Manassas, Va., USA), the European Collection of Cell Culture (ECACC, Salisbury, UK) and the Deutsche Sammlung von Mikroorganismen and Zellkulturen (DSMZ, Braunschweig, Germany). Human cervical adenocarcinoma HeLa cells were cultured in DMEM supplemented with 10% fetal bovine serum (FBS). Human mammary carcinoma MCF-7 cells were cultured in RPMI supplemented with 10% FBS. The U87 cells (ATCC HTB-14) were cultured in DMEM culture medium, while the A549 cells (DSMZ ACC107) were cultured in RPMI culture medium supplemented with 10% heat-inactivated FBS. The glioblastoma multiforme Hs683 (ATCC HTB-138) and the T98G (ATCC CRL-1690) cell lines were cultivated in DMEM supplemented with 10% FBS. The Human uterine sarcoma MES-SA and MES-SA/Dx5 cells were cultured in RPMI-1640 medium supplemented with 10% FBS with MES SA/Dx5 maintained in the presence of 500 nM Doxorubicin (Sigma). SKMEL-28 cells (ATCC HTB72) and U373 glioblastoma cells (ECACC 08061901) were cultured in RPMI culture medium supplemented with 10% heat-inactivated FBS. Cell culture media were supplemented with 4 mM glutamine (Lonza code BE17-605E), 100 μg/mL gentamicin (Lonza code 17-5182), and penicillin-streptomycin (200 units/ml and 200 μg/ml) (Lonza code 17-602E). Neurosphere culture GBM 031810 was established using known methods and maintained in Neurobasal medium (Invitrogen Carlsbad, Calif.) with B27 supplement (20 ul/ml; Invitrogen), Glutamax (10 ul/ml; Invitrogen), fibroblast growth factor-2 (20 ng/ml; Peprotech, Rocky Hill, N.J., USA), epidermal growth factor (20 ng/ml; Peprotech), heparin (32 IE/ml; Sigma Aldrich, St. Louis, Mo.), and penicillin-streptomycin (1×, Invitrogen). Growth factors and heparin were renewed twice weekly. All cell lines were cultured in T25 flasks, maintained and grown at 37° C., 95% humidity, 5% CO2.
(§2) Antiproliferative properties of the synthesized compounds were evaluated by the MTT assay. All compounds were dissolved in DMSO at a concentration of either 100 mM or 50 mM prior to cell treatment. The cells were trypsinized and seeded at 4×10^3 cells per well into 96-well plates. The cells were grown for 24 h, treated with compounds at concentrations ranging from 0.001 to 100 μM and incubated for 48 h in 200 μL media. 20 μL of MTT reagent in serum free medium (5 mg/mL) was added to each well and incubated further for 2 h. Media was removed and the resulting formazan crystals were re-solubilized in 200 μL of DMSO. A490 was measured using a Molecular Devices Thermomax plate reader. The experiments were performed in quadruplicate and repeated at least twice for each compound per cell line. Cells treated with 0.1% DMSO were used as a negative control; 1 μM phenyl arsine oxide (PAO) was used as a positive control.

[2] = tested on: Hs683 anaplastic oligodendroglioma cells; experiment: MTT antiproliferative assay, Hs683; assay type: cell-based; conditions: Homo sapiens, Hs 683, 48 h treatment, ± SD, apoptosis-sensitive reference, read-out: GI50 in vitro, Hs683
Method: (§3) As part of the ongoing efforts aimed at identification of compounds active against cancer cells displaying resistance to proapoptotic agents, the selected 2-aryl-2-(3-indolyl)-acetohydroxamates were evaluated for in vitro growth inhibition against a panel of additional cancer cell lines including those resistant to various proapoptotic stimuli, such as human T98G and U87 glioblastoma and human A549 non-small-cell-lung cancer (NSCLC), as well as an apoptosis-sensitive tumor model, such as human Hs683 anaplastic oligodendroglioma, used as a reference. The data reveal that for the most part these compounds retain the single-digit antiproliferatve GI50 values in this challenging cancer cell panel.
as §1, §2

[3] = tested on: U87 glioblastoma cells; experiment: MTT antiproliferative assay, U87; assay type: cell-based, human
Method: as §3, §1, §2

[4] = tested on: T98G glioblastoma cells; experiment: MTT antiproliferative assay, T98G; assay type: cell-based; conditions: Homo sapiens, 48 h treatment, ± SD, read-out: GI50 in vitro, T98G
Method: as §3, §1, §2

[5] = tested on: A549 non-small-cell-lung cancer cells; experiment: MTT antiproliferative assay, A549; assay type: cell-based, human
Method: as §3, §1, §2

[6] = tested on: SKMEL-28 melanoma cells; experiment: Quantitative videomicroscopy, SKMEL-28; assay type: cell-based, human; conditions: 25 μM
Method: To obtain insight into the effectiveness of 2-aryl-2-(3-indolyl)acetohydroxamates against apoptosis-resistant cancers, computer-assisted phase-contrast microscopy (quantitative videomicroscopy) was employed to observe the phenotypic morphological changes in cancer cells as they are treated with these compounds. […] Based on the phase contrast pictures obtained by means of quantitative videomicroscopy, a global growth ratio (GGR) was calculated, which corresponds to the ratio of the mean number of cells present in a given image captured in the experiment (in this case after 24, 48 and 72 h) to the number of cells present in the first image (at 0 h). The ratio obtained in the 3aafa-treated experiment was then divided by the ratio obtained in the control. […] Thus, the GGR calculations are consistent with the MTT colorimetric data and indicate that it is the cytostatic properties associated with the hydroxamates that are responsible for their antiproliferative effects against apoptosis-resistant cancer cells, at least at relevant concentrations (slightly above the GI50 values).
Human cancer cell lines were obtained from the American Type Culture Collection (ATCC, Manassas, Va., USA), the European Collection of Cell Culture (ECACC, Salisbury, UK) and the Deutsche Sammlung von Mikroorganismen and Zellkulturen (DSMZ, Braunschweig, Germany). […]

[7] = tested on: U87 glioma cells; experiment: Redifferentiation of U87 cells to an astrocytic phenotype; assay type: cell-based, human; conditions: GI50 concentration (7 μM, 33-day treatment, FIG. 5C)
Method: Although such redifferentiation processes are known, there are only a few small molecule agents reported to induce these epigenetic transformations.
U87 cells were plated at a density of 5×10^4 cells per well in 24-well plate in DMEM supplemented with 10% FBS. The following day, the cells in each well were re-fed with 1 mL of fresh DMEM/10% FBS, and treated with 3aafa to a final concentration between 15 and 5 μM. Cells were placed into the CO2 incubator and media was not replaced for the duration of the experiment.

[8] = FIG. 3, increasing concentration

GI50 [1]: 3.4 ± 0.3 µM
GI50 [2]: 8.9 ± 0.4 µM
GI50 ([3]; Homo sapiens, 48 h treatment, MTT, ± SD, read-out: GI50 in vitro, U87): 9.5 ± 0.3 µM
GI50 [4]: 36.4 ± 1.9 µM
GI50 ([5]; Homo sapiens, A549, 48 h treatment, MTT, ± SD, read-out: GI50 in vitro, A549): 2.8 ± 0.4 µM
Structure (SMILES): O=C(NO)C(c1ccccc1)c1c(-c2ccc3ccccc3c2)[nH]c2ccccc12 (stereo not shown) [Compound 3aafa]
activity against cell populations resistant to proapoptotic agents, U87 [3, 8]: potent growth inhibitory properties against most of the cells
activity against cell populations resistant to proapoptotic agents, A549 [5, 8]: potent growth inhibitory properties against most of the cells
phenotypic effect, SKMEL-28 ([6]; slightly exceeding GI50, FIG. 4): inhibits cancer cell proliferation without inducing cell death
global growth ratio (GGR), SKMEL-28 ([6]; 72 h observation, treated/control): ca. 0.3
phenotypic morphological changes of U87 cells [7]: ceased to replicate and appeared to undergo redifferentiation to a non-malignant state resembling an astrocytic phenotype
